From PMC12459314, “Subcutaneous administration of a novel TRPM8 antagonist reverses cold hypersensitivity while attenuating the drop in core body temperature” (British journal of pharmacology, 2024)

What was measured:
human TRPA1 = biological target: T1, human TRPA1 (Homo sapiens, UniProt O75762); experiment: FlexStation Ca2+ flux assay in HEK293T cells transfected with human TRPA1; format: cell-based; settings: against an EC80 concentration (10 μM) of AITC
T1 construct: expressed in transfected cells; host or cells: HEK293T
Method: (§1) The human embryonic kidney cell line (HEK293T, CRL-1573, RRID: CVCL_0045) was purchased from the American Type Culture Collection (Manassas, USA) and was maintained in Dulbecco’s Minimal Essential Medium (DMEM, Cellgro10013CV, Corning, Tewksbury, USA) that was supplemented with 10% fetal bovine serum (Gemini Bio-products), 2-mM L-glutamine (Invitrogen) and 100 U/mL penicillin and streptomycin (Invitrogen) and cultured in an incubator at 37°C, 5% CO2 and 95% humidity. Human TRPV1 and TRPA1 plasmid DNA (gift from D. Julius) were transiently bulk transfected individually into HEK293T cells using the FuGene HD transfection reagent (TFR, Promega, Madison, WI, USA) at a 3:1 ratio (TFR:DNA). Transfected cells were seeded at 10,000 cells per well in a volume of 25 μl into black walled collagen coated 384-well microtiter plates and cultured in an incubator at 37°C, 5% CO2 and 95% humidity for 48 h prior to the initiation of calcium mobilization experiments performed on a FlexStation 3 (Molecular Devices, Sunnyvale, CA, USA) platform equipped with a 16-channel robotic pipettor head and FLIPR tetra pipette tips. At 46 h post transfection, cell monolayers were preloaded with 25 μl of the FLIPR Calcium 6 dye (Molecular Devices) for 2 h in an incubator at 37°C, 5% CO2 and 95% humidity according to the manufacturer’s instructions. The plate was transferred to a FlexStation 3 microplate reader. Relative fluorescence units (RFUs) (Ex. 485 nm, Em 525 nm) were then acquired at 37°C in the kinetic mode. The run time for the agonist (1st) and antagonist (2nd) reads were 60 s each, for a total run time of 120 s, with an interval of 3.1 s between reads in the same well to allow all 16 wells in a column to be read sequentially, and the photomultiplier tube (PMT) level was set at medium, with 6 flashes per read. Baseline Fluo-6 RFUs were acquired for 18 s prior to the addition of compound in both the agonist and antagonist reads. For the first addition agonist read, the volume in the well was 50 μl, the pipette height was set at 40 μl, and 12.5 μl of the test compound was delivered at a speed of 2 μl·s^−1 after the baseline RFU’s acquisition period at 19 s, and the RFUs were acquired for an additional 41 s. For the second addition antagonist read, the volume in the well was 62.5 μl, the pipette height was set at 40 μl, and 12.5 μl of an EC80 agonist concentration was delivered at a speed of 2 μl/s after the baseline RFU’s acquisition period at 19 s, and the RFUs were acquired for an additional 41 s. The FlexStation 3 instrument settings, automated pipetting and data collection were all controlled by the SoftMax Pro software, version 7.1.2.
To analyse the agonist and antagonist Ca^2+ mobilization Fluo-6 RFU’s kinetic data, the RFU’s readings acquired throughout the 60-s acquisition period for each individual well were divided by the average RFU values acquired during the first 18-s baseline acquisition period from the same well to calculate a fold over baseline (FOB) ratio.

AITC-treated mice = experiment: AITC-induced nociceptive behaviours; format: in vivo, mouse; settings: HC-030031 200 mg·kg−1, 30 min before AITC 3 mg·kg−1 i.p.; quantified over 20 min
Method: Male and female C57 BL/6J mice from Taconic Labs were randomized by sex and cage to oxaliplatin or vehicle groups. Mice were weighed and injected intraperitoneally (i.p.) with either oxaliplatin (3 mg·kg^−1), or vehicle (5% dextrose) once per day every day for five consecutive days, followed by five days off, and then by a second round of once per day for five more days. Therefore, mice received a total of 10 injections for a total of 30 mg·kg^−1. The average weight of the females was 18 g while of the males was 20 g. Consequently, the females received an average of 540 and the males 600 μg in total. Behavioural testing was started after the second round of oxaliplatin/vehicle administration. The cold-plantar test was used to assess changes in cold sensitivity. […] The dry ice is placed on the glass (borosilicate glass; thickness, 1/8 in. (3.17 mm); temperature, 75°F (24°C), measured with a calibrated IR temperature probe) beneath the hindpaw and the latency to withdraw was determined ([Yilmaz et al., 2017]). The baseline withdrawal latency was determined from the mean of three stimulus applications (at an inter-stimulus interval of ~5 min), while that at each time interval after the administration of a test agent was again the mean of three stimulus applications bracketing the time point in question (i.e., 5 min before, at the time point, and 5 min after). […]

oxaliplatin-treated mice = experiment: Oxaliplatin-induced cold hyperalgesia, cold-plantar test; format: in vivo, mouse
Method: Male and female C57 BL/6J mice from Taconic Labs were randomized by sex and cage to oxaliplatin or vehicle groups. Mice were weighed and injected intraperitoneally (i.p.) with either oxaliplatin (3 mg·kg^−1), or vehicle (5% dextrose) once per day every day for five consecutive days, followed by five days off, and then by a second round of once per day for five more days. Therefore, mice received a total of 10 injections for a total of 30 mg·kg^−1. The average weight of the females was 18 g while of the males was 20 g. Consequently, the females received an average of 540 and the males 600 μg in total. Behavioural testing was started after the second round of oxaliplatin/vehicle administration. The cold-plantar test was used to assess changes in cold sensitivity. A 3 ml syringe barrel filled with powdered dry ice was used as the stimulus. The dry ice is placed on the glass (borosilicate glass; thickness, 1/8 in. (3.17 mm); temperature, 75°F (24°C), measured with a calibrated IR temperature probe) beneath the hindpaw and the latency to withdraw was determined ([Yilmaz et al., 2017]). The baseline withdrawal latency was determined from the mean of three stimulus applications (at an inter-stimulus interval of ~5 min), while that at each time interval after the administration of a test agent was again the mean of three stimulus applications bracketing the time point in question (i.e., 5 min before, at the time point, and 5 min after). Mice in the two groups defined by oxaliplatin treatment were subsequently randomized to the order of treatment (with the TRPM8 antagonist VBJ103, or vehicle control). VBJ103 and vehicle solutions were administered subcutaneously (s.c.) at doses of 3, 10 and 30 mg·kg^−1. Mice were tested every other day over 7 days so that each mouse received all four injections (vehicle and three doses of VBJ103). In a second cohort of male (n = 8) and female (n = 8) mice, all mice were treated with oxaliplatin as described above, and then randomized to the order of treatment with vehicle, VBJ103 (30 mg·kg^−1) alone, the TRPA1 antagonist, HC-030031 (200 mg·kg^−1) alone, or the combination of VBJ103 (30 mg·kg^−1) and HC-030031 (200 mg·kg^−1). A third cohort of male (n = 7) and female (n = 8) mice was also treated with oxaliplatin as described above. […] All test agents in both follow-up cohorts were again administered in a volume of 5 ml·kg^−1. Mice in both follow-up cohorts were again tested every other day over a period of 6 days. Finally, a fourth cohort of male (n = 4) and female (n = 4) mice was used to confirm that 200 mg·kg^−1 HC-030031 was sufficient to block TRPA1. For this experiment, mice were randomized to the order of treatment with vehicle or HC-030031 ([…]).

[1] = Core body temperature and home cage activity by radiotelemetry (s.c., i.p.); format: in vivo, mouse; settings: capsaicin 1 mg·kg−1 s.c.
Method: Male and female C57Bl6J (Jackson Laboratories, Bar Harbor, USA, 8–12 weeks of age, 4 M:3F) were anaesthetised with isoflurane (2%–3% in 100% oxygen), and an HDX11 telemetry unit (Data Sciences) was inserted into the peritoneal cavity through a ventral midline incision. Animals were treated with buprenex (0.05 mg·kg^−1, s.c.every 8 h for 72 h) and enrofloxacin (2 mg·kg^−1, s.c.) and single-housed in a reverse light–dark cycle room (lights off 10 AM–10 PM). Mice were handled every day to acclimatise to injections, and experiments began 1 week later. All injections were performed between 1 and 2 PM. […] Body temperature was averaged into 5-min bins, whereas activity data were summed for the 5-min bin.

human TRPV1 = biological target: T2, human TRPV1 (Homo sapiens, UniProt Q8NER1); experiment: FlexStation Ca2+ flux assay in HEK293T cells transfected with human TRPV1; format: cell-based
T2 construct: expressed in transfected cells; host or cells: HEK293T
Method: as §1, with “Transfected cells were seeded at 10,000 cells per well in a volume of 25 μl into black walled collagen coated 384-well microtiter plates and cultured in an incubator at 37°C, 5% CO2 and 95% humidity for 48 h prior to the initiation of calcium mobilization experiments performed on a FlexStation 3 (Molecular Devices, Sunnyvale, CA, USA) platform equipped with a 16-channel robotic pipettor head and FLIPR tetra pipette tips. At 46 h post transfection, cell monolayers were preloaded with 25 μl of the FLIPR Calcium 6 dye (Molecular Devices) for 2 h in an incubator at 37°C, 5% CO2 and 95% humidity according to the manufacturer’s instructions.” left out, “The FlexStation 3 instrument settings, automated pipetting and data collection were all controlled by the SoftMax Pro software, version 7.1.2.” left out

[2] = ref Journigan et al, 2020; cited from earlier work
[3] = Partition coefficient (logD), shake flask method; format: physicochemical; settings: n-octanol / pH 7.4 phosphate buffer
Method: The partition coefficient (logD) at pH 7.4 of VBJ103 was determined using the shake flask method by Absorption Systems (Exton, PA, USA). The buffer was prepared by combining 50 ml of 0.2-M solution of KH2PO4 with 150 ml of dH2O and then adjusting to pH 7.4 with 10-N NaOH. In a single incubation, 15 μl of a 10-mM DMSO solution of each test article was added to test tubes which contained 0.75 ml of n-octanol and 0.75 ml of pH 7.4 phosphate buffer. Testosterone was also introduced to each tube as an internal control, also at a dosing concentration of 100 μM. These samples were gently mixed on a benchtop rotator for 1 h at room temperature. The tubes were then removed from the rotator, and the aqueous and organic phases were allowed to separate for 1 h. An aliquot of the organic layer was taken and diluted 200-fold into a mixture of 1:1 buffer: acetonitrile (ACN). An aliquot of the aqueous layer was taken and diluted 2-fold, 10-fold and 200-fold into a mixture of 1:1 buffer: ACN. All samples were assayed by LC–MS/MS on a Thermo BDS Hypersil C18 column (30 × 2.1 mm, 3 μm) using electrospray ionization, as previously reported ([Journigan et al., 2020]).

[4] = Core body temperature by radiotelemetry after i.c.v. administration; format: in vivo, mouse; settings: 3 nmol in 1 μL i.c.v.; within 60 min; in five of eight mice
Method: A second set of male C57Bl6J mice (Jackson Laboratories, n = 8) was implanted with telemetry as described above and a 26-gauge brain cannula (Plastics One) targeted at the lateral ventricle using coordinates relative to Bregma: 0.3 mm caudal, 1.0 mm lateral, 3.0 mm ventral. This second procedure was also performed under isoflurane anesthesia. The brain cannula was secured to the skull with two screws and dental cement. Animals were treated with buprenex (0.05 mg·kg^−1, s.c. every 8 h for 48 h) and enrofloxacin (2 mg·kg^−1, s.c.), singly housed and handled daily as described above. A single i.c.v. injection was performed every other day in a randomized order and included: (1) Galanin-like peptide (3 nmol/1 μL), (2) VBJ103 (306 nmol/1 μL) and (3) VBJ103 vehicle (1 μL). Galanin-like peptide produced a decrease in body temperature in five of eight mice. Therefore, body temperature data in response to VBJ103 and vehicle are presented in these five mice. These studies were carried out with a single dose of VBJ103 (306 nmol/1 μL or ~4 mg·kg^−1), which was the highest dose achievable due to constraints of the injection volume and the solubility of VBJ103.

T1 sequence (O75762 whole entry): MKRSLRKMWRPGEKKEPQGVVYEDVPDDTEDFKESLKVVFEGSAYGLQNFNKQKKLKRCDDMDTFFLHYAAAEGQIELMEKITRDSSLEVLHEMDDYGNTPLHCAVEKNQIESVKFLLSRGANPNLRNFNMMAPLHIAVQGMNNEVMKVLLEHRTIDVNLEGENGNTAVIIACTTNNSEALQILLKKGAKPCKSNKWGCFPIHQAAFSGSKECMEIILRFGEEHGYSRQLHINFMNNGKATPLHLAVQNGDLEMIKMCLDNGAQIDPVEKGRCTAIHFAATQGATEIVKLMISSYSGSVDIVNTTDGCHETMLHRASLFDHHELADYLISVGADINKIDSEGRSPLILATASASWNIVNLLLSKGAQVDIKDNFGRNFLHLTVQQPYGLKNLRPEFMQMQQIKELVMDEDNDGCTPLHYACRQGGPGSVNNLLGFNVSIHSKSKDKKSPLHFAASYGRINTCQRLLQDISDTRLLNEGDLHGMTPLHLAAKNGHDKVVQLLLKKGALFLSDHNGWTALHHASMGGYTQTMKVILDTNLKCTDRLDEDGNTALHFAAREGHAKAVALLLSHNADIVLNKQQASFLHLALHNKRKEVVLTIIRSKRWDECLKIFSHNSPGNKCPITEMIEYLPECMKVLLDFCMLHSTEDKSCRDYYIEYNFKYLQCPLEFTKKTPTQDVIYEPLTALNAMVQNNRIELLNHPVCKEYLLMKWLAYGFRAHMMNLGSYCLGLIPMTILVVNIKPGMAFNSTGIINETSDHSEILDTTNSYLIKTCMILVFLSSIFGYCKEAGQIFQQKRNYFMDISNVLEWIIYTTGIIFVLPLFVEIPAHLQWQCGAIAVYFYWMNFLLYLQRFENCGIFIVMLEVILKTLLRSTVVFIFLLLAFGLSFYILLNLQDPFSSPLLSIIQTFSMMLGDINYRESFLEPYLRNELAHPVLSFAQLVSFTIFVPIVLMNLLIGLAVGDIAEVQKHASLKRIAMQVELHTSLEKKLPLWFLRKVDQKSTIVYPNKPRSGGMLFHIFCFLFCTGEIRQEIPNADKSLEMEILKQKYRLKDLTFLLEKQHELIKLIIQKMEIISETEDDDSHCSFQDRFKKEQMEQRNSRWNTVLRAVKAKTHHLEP
T2 sequence (Q8NER1 whole entry): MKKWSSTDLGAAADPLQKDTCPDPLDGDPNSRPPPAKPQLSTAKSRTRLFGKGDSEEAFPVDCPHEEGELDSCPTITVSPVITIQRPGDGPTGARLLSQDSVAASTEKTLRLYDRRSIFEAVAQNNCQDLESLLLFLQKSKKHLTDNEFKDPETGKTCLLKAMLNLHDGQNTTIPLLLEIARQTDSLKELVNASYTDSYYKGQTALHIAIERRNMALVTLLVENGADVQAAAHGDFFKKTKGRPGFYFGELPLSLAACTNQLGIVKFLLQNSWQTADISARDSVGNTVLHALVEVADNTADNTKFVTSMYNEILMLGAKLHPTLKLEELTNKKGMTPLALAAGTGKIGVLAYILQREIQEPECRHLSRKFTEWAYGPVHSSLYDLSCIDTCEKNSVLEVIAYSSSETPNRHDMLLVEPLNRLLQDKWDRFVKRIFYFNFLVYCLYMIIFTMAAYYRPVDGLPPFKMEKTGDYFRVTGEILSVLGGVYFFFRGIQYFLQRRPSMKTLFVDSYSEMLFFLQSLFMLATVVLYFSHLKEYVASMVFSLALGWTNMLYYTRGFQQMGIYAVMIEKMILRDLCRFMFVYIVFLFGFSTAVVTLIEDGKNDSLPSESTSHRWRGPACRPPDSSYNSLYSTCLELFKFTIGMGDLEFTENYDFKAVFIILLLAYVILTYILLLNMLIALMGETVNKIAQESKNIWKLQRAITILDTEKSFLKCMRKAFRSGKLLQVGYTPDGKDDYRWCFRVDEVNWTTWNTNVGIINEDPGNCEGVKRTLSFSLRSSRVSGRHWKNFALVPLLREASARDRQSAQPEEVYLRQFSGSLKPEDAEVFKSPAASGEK

With CC(C)c1ccc(NC(=O)Cn2cnc3c2c(=O)n(C)c(=O)n3C)cc1 [HC-030031, reference compound] the IC50 (human TRPA1) was 2000 ± 830 nM, the “maximum inhibition at TRPA1” value (human TRPA1) was 54% and the AITC-induced nociceptive behaviours (AITC-treated mice) was “significantly attenuated”. For the same compound, the “influence on oxaliplatin-induced cold hypersensitivity” value (oxaliplatin-treated mice; 200 mg·kg−1 alone, second cohort, vehicle 0.5% Methocel) was “failed to detect an influence”.

In the case of COc1cc(CNC(=O)CCCC/C=C/C(C)C)ccc1O [capsaicin, reference compound], the “time of peak drop in CBT” value [1] is reported as no more than 60 min and the “drop in CBT versus s.c. VBJ103 or PBMC” value ([1]; positive control) is reported as “significantly larger drop”.

Cl.Cl.Cl.Cl.Cl.Cl.N.N.N.N.N.N.N.N.N.N.N.N.N.N.[O-2].[O-2].[Ru+3].[Ru+3].[Ru+4] [ruthenium red, reference compound] gave an IC50 (human TRPA1) of 53 ± 7 nM.

Oc1cc2c(cc1O)CN(C(=S)NCCc1ccc(Cl)cc1)CCC2 [capsazepine, reference compound] gave an IC50 (human TRPV1) of 566 ± 86 nM.

In the case of C[C@]12CC[C@H]3[C@@H](CCC4=CC(=O)CC[C@@]43C)[C@@H]1CC[C@@H]2O [testosterone, reference compound], the “Mouse Liver microsomes, T1/2” value [2] is listed as 3.7 min and the logD at 1 h [3] is listed as 3.09.

For “galanin-like peptide: peptide given i.c.v. as positive control for a decrease in body temperature (APAHRGRGGWTLNSAGYLLGPVLHLPQMGDQDGKRETALEILDLWKAIDGLPYSHPPQPS; Galanin-like peptide; UniProt Q9UBC7 25-84, looked up) [reference compound]”, the “decrease in CBT” value [4] was greater than 3 °C.

In the case of Fc1ccc(C(OCCN2CCN(CCCc3ccccc3)CC2)c2ccc(F)cc2)cc1 [GBR12909, reference compound], the “influence on withdrawal latency to noxious cold stimuli” value (oxaliplatin-treated mice; 20 mg·kg−1 alone, third cohort, vehicle 1:1 DMSO:water) is reported as “no detectable influence”.
